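Compound exposure: 48 hours, 5 concentrations, 96-well plates. Abbreviation: GI50, concentration required for 50% inhibition of growth.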 Activity calls are given as the source filed them. Rule as the data show it: active = GI50 up to about 1.1 µM and inactive = higher.
Experiments:
Assay in all cases: DTP human tumour cell line panel, 48 h
MCF7 = tested on: MCF7
HOP-92 = tested on: HOP-92
SF-268 = tested on: SF-268
Hs-578T = tested on: Hs-578T
SK-MEL-2 = tested on: SK-MEL-2
NCI-H226 = tested on: NCI-H226
T47D = tested on: T47D
SF-295 = tested on: SF-295
MOLT-4 = tested on: MOLT-4
SK-MEL-28 = tested on: SK-MEL-28
K562 = tested on: K562
CCRF-CEM = tested on: CCRF-CEM
NCI-H460 = tested on: NCI-H460
U-251 = tested on: U-251
COLO 205 = tested on: COLO 205
EKVX = tested on: EKVX
HCT-15 = tested on: HCT-15
OVCAR-8 = tested on: OVCAR-8
TK-10 = tested on: TK-10
NCI/ADR-RES = tested on: NCI/ADR-RES
DU-145 = tested on: DU-145
MDA-N = tested on: MDA-N
Malme-3M = tested on: Malme-3M
SNB-19 = tested on: SNB-19
CAKI-1 = tested on: CAKI-1
KM12 = tested on: KM12
A498 = tested on: A498
PC-3 = tested on: PC-3
786-0 = tested on: 786-0
NCI-H522 = tested on: NCI-H522
ACHN = tested on: ACHN
HT-29 = tested on: HT-29
BT-549 = tested on: BT-549
HOP-62 = tested on: HOP-62
M14 = tested on: M14
UACC-257 = tested on: UACC-257
UACC-62 = tested on: UACC-62
SF-539 = tested on: SF-539
OVCAR-3 = tested on: OVCAR-3
OVCAR-4 = tested on: OVCAR-4
HCT-116 = tested on: HCT-116
HCC 2998 = tested on: HCC 2998
MDA-MB-231 = tested on: MDA-MB-231
SK-OV-3 = tested on: SK-OV-3
SR = tested on: SR
HL-60 = tested on: HL-60
SW-620 = tested on: SW-620
OVCAR-5 = tested on: OVCAR-5
SN12C = tested on: SN12C
A549 = tested on: A549
UO-31 = tested on: UO-31
MDA-MB-435 = tested on: MDA-MB-435
SNB-75 = tested on: SNB-75
NCI-H23 = tested on: NCI-H23
SK-MEL-5 = tested on: SK-MEL-5
LOX IMVI = tested on: LOX IMVI

O=S1(=O)N=C(SCc2c[nH]c3ccccc23)N(c2ccccc2)c2ccncc21
GI50 (MCF7): 42.5 µM (inactive) | GI50 (HOP-92): 53.7 µM (inactive) | GI50 (SF-268): 50.9 µM (inactive) | GI50 (Hs-578T): > 100 µM (inactive) | GI50 (SK-MEL-2): > 100 µM (inactive) | GI50 (NCI-H226): 97.7 µM (inactive) | GI50 (T47D): 21.3 µM (inactive) | GI50 (SF-295): > 100 µM (inactive) | GI50 (MOLT-4): 46.7 µM (inactive) | GI50 (SK-MEL-28): > 100 µM (inactive) | GI50 (K562): > 100 µM (inactive) | GI50 (CCRF-CEM): 41.4 µM (inactive) | GI50 (NCI-H460): > 100 µM (inactive) | GI50 (U-251): 87.5 µM (inactive) | GI50 (COLO 205): > 100 µM (inactive) | GI50 (EKVX): > 100 µM (inactive) | GI50 (HCT-15): > 100 µM | GI50 (OVCAR-8): > 100 µM (inactive) | GI50 (TK-10): 35.6 µM (inactive) | GI50 (NCI/ADR-RES): > 100 µM (inactive) | GI50 (DU-145): 35.2 µM (inactive) | GI50 (MDA-N): > 100 µM (inactive) | GI50 (Malme-3M): > 100 µM (inactive) | GI50 (SNB-19): > 100 µM (inactive) | GI50 (CAKI-1): 67.5 µM (inactive) | GI50 (KM12): > 100 µM (inactive) | GI50 (A498): 27 µM (inactive) | GI50 (PC-3): 66.7 µM (inactive) | GI50 (786-0): 25.1 µM (inactive) | GI50 (NCI-H522): 37.5 µM (inactive) | GI50 (ACHN): 65.3 µM (inactive) | GI50 (HT-29): > 100 µM (inactive) | GI50 (BT-549): 59 µM (inactive) | GI50 (HOP-62): > 100 µM (inactive) | GI50 (M14): > 100 µM (inactive) | GI50 (UACC-257): > 100 µM (inactive) | GI50 (UACC-62): > 100 µM (inactive) | GI50 (SF-539): 22.8 µM (inactive) | GI50 (OVCAR-3): > 100 µM (inactive) | GI50 (OVCAR-4): > 100 µM (inactive) | GI50 (HCT-116): > 100 µM (inactive) | GI50 (HCC 2998): > 100 µM (inactive) | GI50 (MDA-MB-231): > 100 µM (inactive) | GI50 (SK-OV-3): > 100 µM (inactive) | GI50 (SR): 34.2 µM (inactive) | GI50 (HL-60): > 100 µM (inactive) | GI50 (SW-620): > 100 µM (inactive) | GI50 (OVCAR-5): 94.2 µM (inactive) | GI50 (SN12C): 74.6 µM (inactive) | GI50 (A549): > 100 µM (inactive) | GI50 (UO-31): 18.5 µM (inactive) | GI50 (MDA-MB-435): > 100 µM (inactive) | GI50 (SNB-75): 21.5 µM (inactive) | GI50 (NCI-H23): > 100 µM (inactive) | GI50 (SK-MEL-5): > 100 µM (inactive) | GI50 (LOX IMVI): 35.4 µM (inactive)

Source: ChEMBL document CHEMBL1201862, “PubChem BioAssay data set” (2004)
